Source: patent publication US20150242566A1, “Methods and Systems for Designing Animal Food Compositions” (Hill's Pet Nutrition, Inc., priority 2005, published 2015)

Test system: gene expression in four canine cell lines: CCL34 (kidney), CRL1430 (thymus), CCL183 (bone), CTAC (thyroid)
Assay: Effect of test substances or ingredients on gene expression in canine cell lines (Affymetrix Canine-1 and Canine-2 gene chips)
Assay type: cell-based
Conditions: for Direction of gene expression, probe 1605486_at: pyruvate dehydrogenase kinase 4 mRNA; for Direction of gene expression, probe 1605486_at / Direction of gene expression, probe 6282824_at: two concentrations per ingredient (Table 6), vs solvent control; for Direction of gene expression, probe 6282824_at: Canis familiaris carnitine palmitoyl transferase I isoform (CPT1) mRNA, human BC000185; for Direction of gene expression, probe 6283403_at: Sus scrofa carnitine palmitoyltransferase I mRNA, human AK172798
Source text: Cells cultured from mammalian cell lines are used to isolate good quality RNA which is then used for future downstream genomic analysis. All work related to the culturing of the cells is to be done under strict aseptic conditions. Procedure: Removing Cells from the OptiCell Chamber (proceed one OptiCell at a time). Check the cells under a microscope to ensure that the cells are alive before isolating RNA. Remove and discard the cell culture medium. Using the OptiCell knife cut away the top membrane exposing the cells on the lower membrane. Wash the membrane to which the cells are attached three times with 1X PBS. Pipette 600 uL of the Buffer RLT solution (containing R-Mercaptoethanol) onto the center of the membrane to which the cells are attached. Using the cell scraper, gently spread the Buffer RLT over the entire surface of the membrane, and then collect the liquid in one corner. Pipette off the entire volume of Buffer RLT and place into a QIAshredder spin column. RNA Isolation: Centrifuge the QIAshredder spin columns at 14,000 rpm for 2 minutes. Discard the spin column but keep the collection tube and its contents. Add 600 uL of 70% ethanol to the collection tube and mix well by pipetting (the total volume now=1.2 mL). Transfer 600 uL of the cell lysate to an RNeasy mini column and centrifuge for 15 seconds at 14,000 rpm. Discard the flow through but keep the collection tube and the spin column. Transfer the remaining volume of cell lysate (˜600 uL) to the spin column and repeat the centrifugation. Discard the flow through but keep the collection tube and the spin column. Add 700 uL Buffer RW1 to the spin column. Centrifuge for 15 seconds at 14,000 rpm to wash the column. Discard the flow through and the collection tube. Transfer the spin column to a new 2 mL collection tube and add 500 uL Buffer RPE to the column. Centrifuge for 15 seconds at 14,000 rpm. Discard the flow through, keep the collection tube/column. Add another 500 uL Buffer RPE to the column. Centrifuge for 2 minutes at 14,000 rpm. Transfer the spin column to a 1.5 mL collection tube. […] Store the final RNA at −70° C. Gene expression was analyzed using Affymetrix Canine 1 and Canine 2 GeneChip® Arrays available commercially from Affymetrix, Inc., Santa Clara, Calif. 95051. Total RNA is reverse transcribed into cDNA. The cDNA is used to generate cRNA which is fragmented and used as probes for GeneChip hybridization. The gene chip is washed and the hybridization signal is measured with an Affymetrix laser scanner. The hybridization data is then validated and normalized for further analysis. Procedure: All procedures follow exactly as described in GeneChip Expression Analysis Technical Manual (Affymetrix Copyright 1999-2003). Use 5 microgram of total RNA for the first strand cDNA synthesis. Use either Peltier Thermal Cycler PTC-200 or heat block for temperature control on reactions and probe denaturing. The quality control is performed using RNA […] chips with BioAnalyer 2100. Use 100 Format (Midi Array) for the canine genechip. […] TAGs; ALA: EPA: DHA; linoleic acid; stearic acid (SA), conjugated linoleic acid (CLA), GLA; arachidonic acid; lecithin; vitamin A, vitamin D, vitamin E, vitamin K, riboflavin, niacin, pyridoxine, pantothenic acid, folic acid, biotin vitamin C, catechin, quercetin, theaflavin; ubiquinone: lycopene, lycoxanthin; resveratrol; α-lipoic acid; L-carnitine; D-limonene; glucosamine; S-adenosylmethionine; chitosan, various materials containing one or more of these compounds, and various combination thereof on gene expression in four canine cell lines and appropriate controls. The solvent at the higher of the two concentrations was used as a control. Four canine cell lines are used: CCL34 (kidney), CRL1430 (thymus), CCL183 (bone) (Obtained from The American Tissue Culture Collection) and CTAC (thyroid) (See, Measurement of NK Activity in Effector Cells Purified from Canine Peripheral Lymphocytes. Veterinary Immunology and Immunopathology, 35 (1993) 239-251). […]

Question: `CC/C=C\C/C=C\C/C=C\CCCCCCCC(=O)O` [ALA, α-linolenic acid] was tested. Which “Direction of gene expression, probe 6282455_at” value (Canis familiaris type I collagen pre-pro-alpha1(I) chain (COL1A1) mRNA, human AB209597) did it give?
Answer: Its value is “DOWN (down-regulated if its value is <1/1.5 (for across all 4 cell lines analysis) or <½ (for within cell lines analysis))”.

Question: And the “Direction of gene expression, probe 1605486_at” value (shortened to “Direction … probe 1605486_at”) (human AK096428)?
Answer: The value was “UP (up-regulated if it is >1.5 (for across all 4 cell lines analysis) or >2 (for within cell lines analysis))”.

Question: For `CCCCC/C=C\C/C=C\C/C=C\C/C=C\CCCC(=O)O` [ARA, arachidonic acid], which “Direction of gene expression, probe 6282824_at” value is on record?
Answer: The value was “UP (up-regulated if it is >1.5 (for across all 4 cell lines analysis) or >2 (for within cell lines analysis))”.

Question: What about the “Direction of gene expression, probe 1602749_at” value (Homo sapiens BAC clone RP11-44D21 from 4, human AC108866) of the same compound?
Answer: The value was “UP (up-regulated if it is >1.5 (for across all 4 cell lines analysis) or >2 (for within cell lines analysis))”.

Question: What about the “Direction of gene expression, probe 6283403_at” value of the same compound?
Answer: The value was “UP (up-regulated if it is >1.5 (for across all 4 cell lines analysis) or >2 (for within cell lines analysis))”.

Question: And the “Direction … probe 1605486_at” value (human AK096428)?
Answer: Its value is “UP (up-regulated if it is >1.5 (for across all 4 cell lines analysis) or >2 (for within cell lines analysis))”.

Question: What does the source list for `CC/C=C\C/C=C\C/C=C\C/C=C\C/C=C\C/C=C\CCC(=O)O` [DHA, docosahexaenoic acid]?
Answer: Direction of gene expression, probe 6282824_at: UP (up-regulated if it is >1.5 (for across all 4 cell lines analysis) or >2 (for within cell lines analysis)); Direction of gene expression, probe 6287734_at (Canis familiaris similar to Na/Pi cotransporter 4 (LOC478741) mRNA, human BC017952): UP (up-regulated if it is >1.5 (for across all 4 cell lines analysis) or >2 (for within cell lines analysis)); Direction of gene expression, probe 1605486_at (human AK096428): UP (up-regulated if it is >1.5 (for across all 4 cell lines analysis) or >2 (for within cell lines analysis))

Question: With `CC/C=C\C/C=C\C/C=C\C/C=C\C/C=C\CCCC(=O)O` [EPA, eicosapentaenoic acid] as the compound, how does the “Direction of gene expression, probe 6283403_at” value read?
Answer: The value was “UP (up-regulated if it is >1.5 (for across all 4 cell lines analysis) or >2 (for within cell lines analysis))”.

Question: And the “Direction … probe 1605486_at” value (human AK096428)?
Answer: The value was “UP (up-regulated if it is >1.5 (for across all 4 cell lines analysis) or >2 (for within cell lines analysis))”.

Question: And the “Direction of gene expression, probe 6283329_at” value (similar to secreted frizzled-related protein 4, human AC018634)?
Answer: Its value is “DOWN (down-regulated if its value is <1/1.5 (for across all 4 cell lines analysis) or <½ (for within cell lines analysis))”.

Question: How did the “Direction of gene expression, probe 6282385_at” value (Canis familiaris Na+-dependent glutamate transporter (GLAST) mRNA, human D26443) turn out when `CCCCC/C=C\C/C=C\CCCCCCCC(=O)O` [LA, linoleic acid] was run?
Answer: Its value is “DOWN (down-regulated if its value is <1/1.5 (for across all 4 cell lines analysis) or <½ (for within cell lines analysis))”.

Question: What about the “Direction of gene expression, probe 6282824_at” value of the same compound?
Answer: The value was “UP (up-regulated if it is >1.5 (for across all 4 cell lines analysis) or >2 (for within cell lines analysis))”.

Question: What about the “Direction … probe 1605486_at” value (human AK096428) of the same compound?
Answer: The value was “UP (up-regulated if it is >1.5 (for across all 4 cell lines analysis) or >2 (for within cell lines analysis))”.

Question: How did the “Direction of gene expression, probe CfaAffx.9845.1.S1_s_at” value (Canis familiaris similar to leucine rich repeat containing 45 (LOC483375), human NM_144999) turn out when `CCCCCCCCCCCCCCCCCC(=O)O` [SA, stearic acid] was run?
Answer: Its value is “UP (up-regulated if it is >1.5 (for across all 4 cell lines analysis) or >2 (for within cell lines analysis))”.

Question: What about the “Direction of gene expression, probe Cfa.2282.1.S1_at” value (Canis familiaris similar to pyruvate dehydrogenase kinase isoform 4 (LOC482310) mRNA, human AK096428) of the same compound?
Answer: The value was “UP (up-regulated if it is >1.5 (for across all 4 cell lines analysis) or >2 (for within cell lines analysis))”.

Question: And the “Direction of gene expression, probe Cfa.791.4.A1_at” value (Canis familiaris similar to ribosomal protein L24, transcript variant 2 (LOC478547), human NM_000986)?
Answer: The value was “UP (up-regulated if it is >1.5 (for across all 4 cell lines analysis) or >2 (for within cell lines analysis))”.

Question: With conjugated linoleic acid [CLA] as the compound, how does the “Direction of gene expression, probe Cfa.10478.1.A1_at” value (Bos taurus similar to Type II inositol-1,4,5-trisphosphate 5-phosphatase precursor (LOC538291), human AC005691) read?
Answer: Its value is “UP (up-regulated if it is >1.5 (for across all 4 cell lines analysis) or >2 (for within cell lines analysis))”.

Question: And the “Direction of gene expression, probe Cfa.11267.1.A1_at” value (Homo sapiens cDNA clone IMAGE: 4456146, human BC024645)?
Answer: Its value is “DOWN (down-regulated if its value is <1/1.5 (for across all 4 cell lines analysis) or <½ (for within cell lines analysis))”.

Question: And the “Direction of gene expression, probe Cfa.11358.1.A1_at” value (Homo sapiens solute carrier family 20 (phosphate transporter), member 2 (SLC20A2) mRNA, human AF170802)?
Answer: Its value is “UP (up-regulated if it is >1.5 (for across all 4 cell lines analysis) or >2 (for within cell lines analysis))”.
